Measurements: patent US10125125B2, “N-(heteroaryl)-sulfonamide derivatives useful as S100-inhibitors” (Active Biotech AB, priority 2013, dated 2018)

Biological target: biotinylated human S100A9 : rhRAGE-Fc interaction (Homo sapiens (Human), UniProt P06702)
Experiment: AlphaScreen inhibition assay, Biot-hS100A9:hRAGE-Fc (S100A9-RAGE inhibition assay)
Assay type: binding
Source text: FIG. 1 is a schematic representation of an assay of the inhibition of the interaction between biotinylated human S100A9 and human RAGE-Fc using a small molecule S100A9 binder.
Inhibition Assay, Biot-hS100A9:hRAGE-Fc
The AlphaScreen (Amplified Luminescent Proximity Homogeneous Assay) contains two types of beads, Alpha Donor beads and Acceptor beads (PerkinElmer). Upon laser excitation at 680 nm a photosensitizer in the Donor bead converts ambient oxygen to a more excited singlet state. The singlet oxygen molecule diffuses (maximum 200 nm) to react with a thioxene derivative in the Acceptor bead and generates a chemiluminescence reaction. Fluorophores in the Acceptor bead subsequently emit light at 520-620 nm which can be detected in the EnVision® Multilabel plate Reader (PerkinElmer). The beads are light sensitive and all work with the beads is performed under subdued light conditions or using green filters on light sources (Roscolux Chroma Green #389, Rosco).
In the AlphaScreen Inhibition Assay described here, protein A (Staphylococcus aureus) conjugated Acceptor beads are used together with streptavidin coated Donor beads (Perkin Elmer 6760617M). The Acceptor beads are pre-incubated with Fc-tagged recombinant human RAGE (rhRAGE-Fc) allowing binding of the rhRAGE-Fc to protein A on the beads. Biotinylated human S100A9 (biot-hS100A9) is pre-incubated with the low molecular test compounds. The pre-mixes are then added to the wells of a micro-plate and incubated allowing interaction between biot-hS100A9 and rhRAGE-Fc. Subsequent addition of streptavidin coated Donor beads causes binding of the streptavidin to the biotinylated hS100A9. After an additional incubation the signal is measured.
Without inhibitory compounds, the interaction of biot-hS100A9 to rhRAGE-Fc will bring the Acceptor and Donor beads in close proximity thus generating a high signal. With an inhibitor present the complex will not form resulting in a decreased signal.
Chemicals and reagents. • AlphaScreen® General IgG (Protein A) Detection Kit, (PerkinElmer 6760617M) • HBS-P buffer (GE Healthcare, BR-1003-68) • HBS-N buffer (GE Healthcare, BR-1003-69) • CaCl2 in HBS-P • ZnCl2 in Milli-Q water • DMSO • Biotinylated hS100A9, (biotinylated via cystein by EZ-link Iodoacetyl-PEG2-Biotin reagent (Pierce no. 21334), in HBS-N • rhRAGE-Fc (R&D Systems, 1145-RG-50), in HBS-P
The AlphaScreen assay method is used for screening of the inhibitory effect of different compound samples at fixed concentrations or for IC50 determination by varying the compound concentrations. Samples of test compounds and references are prepared from solutions in DMSO. Relevant reference inhibitors and DMSO are used as controls for defined inhibition and non-inhibition, respectively in the assay. The percent inhibition in assay for test compounds and references are calculated by comparing their obtained assay signals with the signal values for the control with only DMSO (no compound).
Assay concentration of biotinylated hS100A9 and rhRAGE-Fc are batch dependent, and are determined and defined by separate cross-titration experiments using this AlphaScreen inhibition method to verify the optimal setup regarding signal strength and achievement of a defined inhibition with relevant reference compounds. The Final assay concentrations of Acceptor and Donor beads are 20 μg/mL.
Experimental Set Up for Screening, Preparation of Solutions and Beads.
Assay buffer is prepared by adding CaCl2 and ZnCl2 to HBS-P and is used freshly prepared in the experiment.
Biotin-hS100A9 solution for the experiment is prepared by dilution of appropriate amount of stock solution biot-hS100A9 in assay buffer (with CaCl2 and ZnCl2) and incubation in room temperature for 30 minutes.
rhRAGE-Fc solution for the experiment is prepared by dilution appropriate amount of rhRAGE-Fc stock in assay buffer.
Protein A Acceptor beads are diluted in assay buffer and are added to an equal volume of the prepared diluted rhRAGE-Fc solution.

Sequence of biotinylated human S100A9 : rhRAGE-Fc interaction (P06702 whole entry): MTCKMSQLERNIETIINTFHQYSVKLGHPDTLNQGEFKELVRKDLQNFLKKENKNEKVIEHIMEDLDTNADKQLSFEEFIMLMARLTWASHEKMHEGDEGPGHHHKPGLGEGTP

Row | Compound | IC50
1 | O=S(=O)(Cc1cc(Cl)cc(Cl)c1)Nc1cnc(Cl)nc1O [Example 107, N-(2-chloro-4-hydroxypyrimidin-5-yl)-1-(3,5-dichlorophenyl)methanesulfonamide] | 4 µM
2 | N#Cc1cncc(NS(=O)(=O)Cc2cc(Cl)cc(Cl)c2)c1O [Example 138, N-(5-cyano-4-hydroxypyridin-3-yl)-1-(3,5-dichlorophenyl)methanesulfonamide] | 3.9 µM
3 | O=S(=O)(Cc1cc(Cl)sc1Cl)Nc1ncc(Cl)cc1O [Example 20, N-(5-chloro-3-hydroxypyridin-2-yl)-1-(2,5-dichlorothiophen-3-yl)methane-sulfonamide] | < 1 µM
4 | O=S(=O)(Cc1cc(Cl)cc(Cl)c1)Nc1nc(C(F)(F)F)ncc1O [Example 157, 1-(3,5-dichlorophenyl)-N-[5-hydroxy-2-(trifluoromethyl)pyrimidin-4-yl]methane-sulfonamide] | < 1 µM
5 | N#Cc1cnc(NS(=O)(=O)Cc2cc(Cl)cc(Cl)c2)c(O)n1 [Example 103, N-(5-cyano-3-hydroxypyrazin-2-yl)-1-(3,5-dichlorophenyl)methanesulfonamide] | < 1 µM
6 | CN(C)c1ncc(S(=O)(=O)Nc2ncc(Cl)cc2O)cc1S(C)(=O)=O [Example 136, N-(5-chloro-3-hydroxypyridin-2-yl)-6-(dimethylamino)-5-methanesulfonylpyridine-3-sulfonamide] | > 1 µM
7 | CCS(=O)(=O)c1cc(O)c(NS(=O)(=O)Cc2cc(Cl)cc(Cl)c2)nn1 [Example 111, 1-(3,5-dichlorophenyl)-N-[6-(ethanesulfonyl)-4-hydroxypyridazin-3-yl]methanesulfonamide] | 0.1 µM
8 | CS(=O)(=O)c1cc(O)c(NS(=O)(=O)c2cc(Cl)cc(Cl)c2)cn1 [Example 155, 3,5-dichloro-N-(4-hydroxy-6-methanesulfonylpyridin-3-yl)benzene-1-sulfonamide] | > 1 µM
9 | CCS(=O)(=O)c1cnc(NS(=O)(=O)Cc2cccc(Cl)c2)c(O)n1 [Example 88, 1-(3-chlorophenyl)-N-[5-(ethanesulfonyl)-3-hydroxypyrazin-2-yl]methane-sulfonamide] | > 1 µM
10 | COc1ncc(S(=O)(=O)Nc2nnc(Cl)cc2O)cc1Br [Example 114, 5-bromo-N-(6-chloro-4-hydroxypyridazin-3-yl)-6-methoxypyridine-3-sulfonamide] | 1 µM
11 | O=S(=O)(Nc1cncc(Cl)c1O)c1ccc(OC(F)(F)F)c(Cl)c1 [Example 102, 3-chloro-N-(5-chloro-4-hydroxypyridin-3-yl)-4-(trifluoromethoxy)benzene-1-sulfonamide] | 2.2 µM
12 | O=S(=O)(Cc1cccc(Cl)c1)Nc1nnc(Cl)cc1O [Example 96, N-(6-chloro-4-hydroxypyridazin-3-yl)-1-(3-chlorophenyl)methanesulfonamide] | 0.41 µM
13 | CCN(CC)C(=O)c1cc(Cl)cc(CS(=O)(=O)Nc2nnc(Cl)cc2O)c1 [Example 161, 3-chloro-5-{[(6-chloro-4-hydroxypyridazin-3-yl)sulfamoyl]methyl}-N,N-diethylbenzamide] | 5.1 µM
14 | N#Cc1cc(CS(=O)(=O)Nc2ncc(Cl)cc2O)cs1 [Example 127, N-(5-chloro-3-hydroxypyridin-2-yl)-1-(5-cyanothiophen-3-yl)methanesulfonamide] | 1.11 µM
15 | CS(=O)(=O)c1nc(NS(=O)(=O)Cc2cc(Cl)cc(Cl)c2)c(O)cc1Cl [Example 134, N-(5-chloro-3-hydroxy-6-methanesulfonylpyridin-2-yl)-1-(3,5-dichlorophenyl)-methanesulfonamide] | 0.53 µM

Now from value to molecule:

Row | IC50 | Compound
16 | < 1 µM | O=S(=O)(Nc1ccnc(Cl)c1O)c1cc(Cl)cc(Cl)c1 [Example 170, 3,5-dichloro-N-(2-chloro-3-hydroxypyridin-4-yl)benzene-1-sulfonamide]
17 | < 1 µM | CCSc1cc(Cl)cc(CS(=O)(=O)Nc2ccc(Cl)nc2O)c1 [Example 186, N-(6-chloro-2-hydroxypyridin-3-yl)-1-[3-chloro-5-(ethylsulfanyl)phenyl]methane-sulfonamide]
18 | < 1 µM | O=S(=O)(Cc1cnc(N2CCCC2)c(Cl)c1)Nc1ccc(Cl)nc1O [Example 185, N-(6-chloro-2-hydroxypyridin-3-yl)-1-[5-chloro-6-(pyrrolidin-1-yl)pyridin-3-yl]-methanesulfonamide]
19 | < 1 µM | CCCc1ccc(S(=O)(=O)Nc2ccc(Cl)nc2O)cc1 [Example 179, N-(6-chloro-2-hydroxypyridin-3-yl)-4-propylbenzene-1-sulfonamide]
20 | < 1 µM | O=S(=O)(Cc1cc(Cl)cc(Cl)c1)Nc1cc(Cl)c(Cl)nc1O [Example 173, N-(5,6-dichloro-2-hydroxypyridin-3-yl)-1-(3,5-dichlorophenyl)methanesulfonamide]
21 | > 1 µM | O=S(=O)(Cc1ccc(C(F)(F)F)cc1)Nc1ccc(Cl)nc1O [Example 178, N-(6-chloro-2-hydroxypyridin-3-yl)-1-[4-(trifluoromethyl)phenyl]methane-sulfonamide]
22 | 3.1 µM | O=S(=O)(Cc1ccc(Cl)c(Cl)c1)Nc1cc(Cl)cnc1O [Example 172, N-(5-chloro-2-hydroxypyridin-3-yl)-1-(3,4-dichlorophenyl)methanesulfonamide]
